This is an account of results in patent publication US8710068B2, “Method of treating cancer using a survivin inhibitor” (The Trustees Of The University Of Pennsylvania, priority 2009, dated 2014).

In assay [1] the target is T1, Survivin protein (Homo sapiens, UniProt O15392).
T1 construct: made in house; host or cells: bacteria
The assay can be described thus: Isothermal titration calorimetry (ITC) binding to native Survivin. On the procedure: FIG. 5 illustrates an analysis of S12-Survivin binding with isothermal titration calorimetry (ITC). Single-site point mutagenesis was performed to create the Survivin mutants F86A and V89Y. The native and the mutant proteins were produced and purified from bacteria.
FIG. 16 illustrates the isothermal titration calorimetry profile of the binding of SBDO3 to the Survivin homodimer.
In order to examine the specificity of the binding, we generated point mutations on the Survivin protein at the site presumably targeted by S12. The two mutations were substitutions of phenylalanine 86 with alanine (F86A) and valine 89 with tyrosine (V89Y). These two altered sites are also adjacent to the interface involved in dimerization of the Survivin protein. Based on structural analyses, we predict that alterations of either of these two amino acid residues may abolish the binding of S12 without affecting the overall structure of the Survivin protein.
We tested the binding of the Survivin target molecules to Survivin by isothermal titration calorimetry.
For orientation: Isothermal titration calorimetry measures the heat released or taken up as one component is titrated into another.

Assay [2] deals with AsPC1 tumor xenograft. The assay can be described thus: AsPC1 mouse xenograft tumor growth. It counts as in vivo, athymic mice. The procedure: FIG. 13 illustrates S12 inhibition of tumor growth in vivo. (A) AsPC1 cells were injected subcutaneously into the mid-dorsum of athymic mice. S12 was administered 10 days after the injection at the concentration of 5 mg/kg (blue triangles; middle line on the graph, n=4) or 15 mg/kg (red triangles; lower line on the graph; n=3). The control group was treated with PBS containing DMSO only (black square; upper line on the graph). The results represent the mean tumor volume+/− standard error (P<0.05). (B) In a second set of studies S12 was administered at the concentration of 15 mg/kg or 50 mg/kg (n=3). In both studies the control group was treated with PBS containing DMSO only. The results represented the mean tumor volume+/− standard error.
The effect of S12 on tumor growth was examined using a mouse xenograft model. The human pancreatic cell line AsPC1 was injected subcutaneously into athymic mice and formed palpable tumors within 10 days. S12 was then administered at the concentration of 5 mg/kg or 15 mg/kg three times per week until the end point of the experiment. The size of the tumors was monitored for up to 48 days after the initial grafting.

T1 sequence (O15392 whole entry): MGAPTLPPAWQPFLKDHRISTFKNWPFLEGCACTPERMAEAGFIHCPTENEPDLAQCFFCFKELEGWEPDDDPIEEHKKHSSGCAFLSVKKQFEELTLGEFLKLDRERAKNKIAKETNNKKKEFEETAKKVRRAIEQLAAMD

As for `O=C(CC1(O)C(=O)Nc2ccc(Br)cc21)c1ccc2c(c1)OCO2` (centres unmarked) [S12], in assay [1] (ITC, in words), the “binding to the Survivin protein” value is on record as “can bind to the Survivin protein”. Also, the “N (ITC stoichiometry)” value in assay [1] (isothermal titration calorimetry, native Survivin) came to 1.00. Moreover, in assay [1] (isothermal titration calorimetry, native Survivin, read-out: K (ITC binding constant) (converted)), the Kd was 224 nM. Also, in assay [2] (5 mg/kg or 15 mg/kg three times per week, up to 48 days), the tumor volume result is listed as “significantly lowered the tumor volume in a dose-dependent manner”. Further, the tumor regression result in assay [2] (dose raised to 50 mg/kg) is listed as “enhancement of tumor regression”.
